Assay results from ChEMBL document CHEMBL3885881, “DrugMatrix”.

Species: Rattus norvegicus
Assay: DrugMatrix - Regimen: Daily Repeat
Format: toxicity, organism-based, Sprague-Dawley
Design: regimen Daily Repeat, gender Male, age 6-8 weeks
Conditions: in vivo, sc, route subcutaneous, […]; for ABSOLUTE BASOPHIL / ABSOLUTE EOSINOPHIL / ABSOLUTE LYMPHOCYTE / ABSOLUTE MONOCYTE / ABSOLUTE SEGMENTED NEUTROPHIL / BASOPHIL / EOSINOPHIL / ERYTHROCYTE COUNT / HEMATOCRIT / HEMOGLOBIN / LEUKOCYTE COUNT / LYMPHOCYTE / MEAN CORPUSCULAR HEMOGLOBIN / MEAN CORPUSCULAR VOLUME / MONOCYTE / NEUTROPHIL / NUCLEATED RED BLOOD CELLS / PLATELET COUNT: tissue Blood; for ALANINE AMINOTRANSFERASE / ALBUMIN / ALKALINE PHOSPHATASE / ASPARTATE AMINOTRANSFERASE / BLOOD UREA NITROGEN / CARBON DIOXIDE / CHLORIDE / CHOLESTEROL / CREATINE PHOSPHOKINASE / CREATININE / GLUCOSE / LACTATE DEHYDROGENASE / LIPASE / PHOSPHORUS / POTASSIUM / SODIUM / TOTAL BILIRUBIN / TOTAL PROTEIN / URIC ACID: tissue Plasma
[1] = 0 mg/kg, 72 h, dose level Control, time 3 day
[2] = 0 mg/kg, 120 h, dose level Control, time 5 day
[3] = 50 mg/kg, 72 h, dose level Low, time 3 day

CCCCCCCCc1ccc(O)cc1 [4-OCTYLPHENOL]
ABSOLUTE BASOPHIL [1]: 0 CELLS/uL | ABSOLUTE EOSINOPHIL [1]: 0 CELLS/uL | ABSOLUTE LYMPHOCYTE [1]: 9782.33 CELLS/uL | ABSOLUTE MONOCYTE [1]: 114.67 CELLS/uL | ABSOLUTE SEGMENTED NEUTROPHIL [1]: 753 CELLS/uL | BASOPHIL [1]: 0% | EOSINOPHIL [1]: 0% | ERYTHROCYTE COUNT [1]: 5.14 x10E6/uL | HEMATOCRIT [1]: 32.12% | HEMOGLOBIN [1]: 13.13 G/DL | LEUKOCYTE COUNT [1]: 10.65 x10E3/uL | LYMPHOCYTE [1]: 91.83% | MEAN CORPUSCULAR HEMOGLOBIN [1]: 25.83 pg | MEAN CORPUSCULAR VOLUME [1]: 62.43 fL | MONOCYTE [1]: 1% | NEUTROPHIL [1]: 7.17% | NUCLEATED RED BLOOD CELLS [1]: 0.17 /100WBC | PLATELET COUNT [1]: 657.83 x10E3/uL | ALANINE AMINOTRANSFERASE [1]: 60.33 u/L | ALBUMIN [1]: 3.83 G/DL | ALKALINE PHOSPHATASE [1]: 366.33 u/L | ASPARTATE AMINOTRANSFERASE [1]: 104.5 u/L | BLOOD UREA NITROGEN [1]: 12.33 mg/dL | CARBON DIOXIDE [1]: 23.17 mmol/L | CHLORIDE [1]: 96.67 MEQ/L | CHOLESTEROL [1]: 73.17 mg/dL | CREATINE PHOSPHOKINASE [1]: 545.83 u/L | CREATININE [1]: 0.26 mg/dL | GLUCOSE [1]: 144.33 mg/dL | LACTATE DEHYDROGENASE [1]: 147.5 u/L | LIPASE [1]: 9.33 u/L | PHOSPHORUS [1]: 10.83 mg/dL | POTASSIUM [1]: 5.68 MEQ/L | SODIUM [1]: 138.83 MEQ/L | TOTAL BILIRUBIN [1]: 0.17 mg/dL | TOTAL PROTEIN [1]: 5.42 G/DL | URIC ACID [1]: 0.65 mg/dL | ABSOLUTE BASOPHIL [2]: 0 CELLS/uL | ABSOLUTE EOSINOPHIL [2]: 43.33 CELLS/uL | ABSOLUTE LYMPHOCYTE [2]: 12883 CELLS/uL | ABSOLUTE MONOCYTE [2]: 166.83 CELLS/uL | ABSOLUTE SEGMENTED NEUTROPHIL [2]: 1290.17 CELLS/uL | BASOPHIL [2]: 0% | EOSINOPHIL [2]: 0.33% | ERYTHROCYTE COUNT [2]: 5.79 x10E6/uL | HEMATOCRIT [2]: 36.37% | HEMOGLOBIN [2]: 14.17 G/DL | LEUKOCYTE COUNT [2]: 14.38 x10E3/uL | LYMPHOCYTE [2]: 89.17% | MEAN CORPUSCULAR HEMOGLOBIN [2]: 24.48 pg | MEAN CORPUSCULAR VOLUME [2]: 62.83 fL | MONOCYTE [2]: 1.17% | NEUTROPHIL [2]: 9.33% | NUCLEATED RED BLOOD CELLS [2]: 0.5 /100WBC | PLATELET COUNT [2]: 1267.33 x10E3/uL | ALANINE AMINOTRANSFERASE [2]: 53.5 u/L | ALBUMIN [2]: 3.82 G/DL | ALKALINE PHOSPHATASE [2]: 342.33 u/L | ASPARTATE AMINOTRANSFERASE [2]: 83.67 u/L | BLOOD UREA NITROGEN [2]: 13.17 mg/dL | CARBON DIOXIDE [2]: 28.17 mmol/L | CHLORIDE [2]: 101.5 MEQ/L | CHOLESTEROL [2]: 70.83 mg/dL | CREATINE PHOSPHOKINASE [2]: 656.67 u/L | CREATININE [2]: 0.17 mg/dL | GLUCOSE [2]: 171.33 mg/dL | LACTATE DEHYDROGENASE [2]: 169 u/L | LIPASE [2]: 9.17 u/L | PHOSPHORUS [2]: 12.88 mg/dL | POTASSIUM [2]: 6.54 MEQ/L | SODIUM [2]: 141.2 MEQ/L | TOTAL BILIRUBIN [2]: 0.18 mg/dL | TOTAL PROTEIN [2]: 5.68 G/DL | URIC ACID [2]: 2.02 mg/dL | ABSOLUTE BASOPHIL [3]: 0 CELLS/uL | ABSOLUTE EOSINOPHIL [3]: 58 CELLS/uL | ABSOLUTE LYMPHOCYTE [3]: 8002.33 CELLS/uL | ABSOLUTE MONOCYTE [3]: 124.67 CELLS/uL | ABSOLUTE SEGMENTED NEUTROPHIL [3]: 648.33 CELLS/uL | BASOPHIL [3]: 0% | EOSINOPHIL [3]: 0.67% | ERYTHROCYTE COUNT [3]: 5.33 x10E6/uL | HEMATOCRIT [3]: 34.07% | HEMOGLOBIN [3]: 13.23 G/DL | LEUKOCYTE COUNT [3]: 8.83 x10E3/uL | LYMPHOCYTE [3]: 90% | MEAN CORPUSCULAR HEMOGLOBIN [3]: 24.83 pg | MEAN CORPUSCULAR VOLUME [3]: 63.87 fL | MONOCYTE [3]: 1.67% | NEUTROPHIL [3]: 7.67% | NUCLEATED RED BLOOD CELLS [3]: 0 /100WBC | PLATELET COUNT [3]: 876 x10E3/uL | ALANINE AMINOTRANSFERASE [3]: 50.33 u/L | ALBUMIN [3]: 3.9 G/DL | ALKALINE PHOSPHATASE [3]: 340 u/L | ASPARTATE AMINOTRANSFERASE [3]: 88 u/L | BLOOD UREA NITROGEN [3]: 10 mg/dL | CARBON DIOXIDE [3]: 24.67 mmol/L | CHLORIDE [3]: 94 MEQ/L | CHOLESTEROL [3]: 67.33 mg/dL | CREATINE PHOSPHOKINASE [3]: 672.33 u/L | CREATININE [3]: 0.22 mg/dL | GLUCOSE [3]: 130.67 mg/dL | LACTATE DEHYDROGENASE [3]: 143.33 u/L | LIPASE [3]: 9.67 u/L | PHOSPHORUS [3]: 11.07 mg/dL | POTASSIUM [3]: 6.18 MEQ/L | SODIUM [3]: 136.97 MEQ/L | TOTAL BILIRUBIN [3]: 0.1 mg/dL | TOTAL PROTEIN [3]: 5.4 G/DL | URIC ACID [3]: 0.83 mg/dL
